In this assay the target is Leukotriene B4 receptor 1 (Homo sapiens, UniProt Q15722). In words: BLT-1 cAMP Assay: The ability of compounds to antagonize the human BLT1 receptor was determined using a kit to measure changes in intracellular cyclic AMP levels (cAMP dynamic assay kit, Cisbio Cat. No. 62AM4PEC). HEK293 cells recombinantly expressing human BLT1 receptor, previously frozen in Recovery Medium (Life Technologies, Cat. No. 12648-010) were thawed and diluted into assay medium (HBSS (Hyclone SH 30268.01), 20 mM HEPES (Gibco 15630-106), 800 μM IBMX (Sigma I5879), 0.1% DTPA BSA (Perkin Elmer CR84-100)). The cell suspension was centrifuged at 200×g for 10 min and then resuspended in fresh assay medium to a density of 2.5×10^5 cells/mL. A Labcyte Echo 550 acoustic dispenser was used to transfer 25 nL of test compound dissolved in DMSO into the wells of a dry 384-well plate (Greiner 784075). All subsequent liquid additions were performed using a BIORAPTR (FRD; Beckman Coulter). Next, 5 μL of cell suspension was added and incubated for 20 min. at 37° C. and 5% CO2 in a humidified plastic tray. To test for agonist activity […] of assay buffer containing forskolin (Sigma F-6886. 4 μM for BLT1) was added and incubated for 30 minutes at 37° C. and 5% CO2 in a humidified plastic tray. To test for antagonist activity 5 μL of assay buffer containing forskolin (Sigma F-6886. 4 μM for BLT1) and either LTB4 (Sigma Aldrich L0517; 2 nM BLT1) was added and incubated for 30 minutes at 37° C. and 5% CO2 in a humidified plastic tray.The levels of cAMP were detected using the CisBio kit following the manufacturer's instructions: cAMP-d2 vial was reconstituted with distilled water and then diluted accordingly with conjugate & lysis buffer. 5 μL of cAMP-d2 working solution was added to all of the wells of the assay plate. cAMP-Cryptate vial was reconstituted with distilled water and then diluted accordingly with conjugate & lysis buffer. 5 μL of cAMP-Cryptate working solution were added to the assay plate. […]. In kind it is cell-based.
Chain of Leukotriene B4 receptor 1 (Q15722 whole entry): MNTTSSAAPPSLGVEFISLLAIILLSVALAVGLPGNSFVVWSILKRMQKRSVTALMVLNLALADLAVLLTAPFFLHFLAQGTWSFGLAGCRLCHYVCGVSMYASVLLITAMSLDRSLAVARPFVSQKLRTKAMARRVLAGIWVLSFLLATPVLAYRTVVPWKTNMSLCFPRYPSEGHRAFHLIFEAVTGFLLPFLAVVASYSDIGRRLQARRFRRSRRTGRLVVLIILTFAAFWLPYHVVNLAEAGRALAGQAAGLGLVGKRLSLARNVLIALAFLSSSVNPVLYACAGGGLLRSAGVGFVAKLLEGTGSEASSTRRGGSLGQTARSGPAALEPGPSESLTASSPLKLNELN
Usually EC50 stands for the concentration that produces a half-maximal response. As for `O=C(NS(=O)(=O)C(F)(F)F)c1ccc(F)cc1-c1ccc2c(c1)OC[C@H](Cc1ccc(-c3ccccc3)cc1)[C@H]2O` (single isomer, unassigned), the EC50 was found to be 0.035 µM. For `CCn1nccc1C[C@@H]1COc2cc(-c3ccccc3C(=O)NS(=O)(=O)C3(C)CC3)ccc2[C@H]1O` (racemic), the EC50 came out at 0.538 µM. The figure for `CC1(S(=O)(=O)NC(=O)c2ccccc2-c2ccc3c(c2)OC[C@@H](Cc2coc(-c4ccccc4)n2)[C@@H]3O)CC1` (single isomer, unassigned) is 0.06 µM.

The record behind these values is ChEMBL document CHEMBL5727202, “Aryl acylsulfonamides as BLT1 antagonists” (2019).
